Data: patent US20260265265A1, “NOVEL BENZIMIDAZOLONE DERIVATIVE COMPOUND AS AUTOTAXIN INHIBITOR” (LG CHEM, LTD., priority 2023, published 2026)
pIC50: −log10 of the molar value.

Biological target: T1, Recombinant Human ENPP-2/Autotaxin (Homo sapiens, UniProt Q13822)
T1 construct: purchased R&D systems 5255-EN
Assay: LysoPLD activity measurement (autotaxin enzyme inhibition, choline release, TOOS reagent)
Format: biochemical
Settings: LysoPLD inhibitory activity; substrate 14:0 LysoPC; absorbance at 555 nm
Outline: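 Enzyme and compound were preincubated for 30 min before adding 14:0 LysoPC substrate, diluted to 300 μM, for 90 minutes at 37° C. The choline product was quantified colorimetrically with TOOS reagent. Wells without compound held 1% DMSO.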

O=C(O)c1cccc(C2(n3c(=O)n(-c4ccc(N5CC6(CCOCC6)C5)cc4)c4cc(Cl)ccc43)CC2)c1 [Example 148, 3-(1-(3-(4-(7-oxa-2-azaspiro[3.5]nonane-2-yl)phenyl)-5-chloro-2-oxo-2,3-dihydro-1H-benzo[d]imidazol-1-yl)cyclopropyl)benzoic acid] and O=C(O)c1cccc(C2(n3c(=O)n(-c4ccc(N5CC6(COC6)C5)cc4)c4cc(Cl)ccc43)CC2)c1 [Example 149, 3-(1-(3-(4-(2-oxa-6-azaspiro[3.3]heptane-6-yl)phenyl)-5-chloro-2-oxo-2,3-dihydro-1H-benzo[d]imidazol-1-yl)cyclopropyl)benzoic acid] cannot be ordered by pIC50: > 8.00 for the first, > 8.00 for the second.

O=C(O)c1cccc(Cn2c(=O)n(-c3ccc(C4CCN(C(=O)C5CC5)CC4)cc3)c3c(F)c(Cl)ccc32)c1F [Example 150, 3-((5-chloro-3-(4-(1-(cyclopropanecarbonyl)piperidin-4-yl)phenyl)-4-fluoro-2-oxo-2,3-dihydro-1H-benzo[d]imidazol-1-yl)methyl)-2-fluorobenzoic acid] and O=C(O)c1cccc(Cn2c(=O)n(-c3ccc(C4CCN(C(=O)C5CCC5)CC4)cc3)c3c(F)c(Cl)ccc32)c1F [Example 152, 3-((5-chloro-3-(4-(1-(cyclobutanecarbonyl)piperidin-4-yl)phenyl)-4-fluoro-2-oxo-2,3-dihydro-1H-benzo[d]imidazol-1-yl)methyl)-2-fluorobenzoic acid] fall in the same range of pIC50: 7.00 to 8.00 for the first, 7.00 to 8.00 for the second.

First: CCC(=O)N1CCC(c2ccc(-n3c(=O)n(Cc4cccc(C(=O)O)c4F)c4ccc(Cl)c(F)c43)cc2)CC1 [Example 151, 3-((5-chloro-4-fluoro-2-oxo-3-(4-(1-propionylpiperidin-4-yl)phenyl)-2,3-dihydro-1H-benzo[d]imidazol-1-yl)methyl)-2-fluorobenzoic acid]
Second: O=C(O)c1cccc(Cn2c(=O)n(-c3ccc(N4CCC(F)(F)C4)nc3)c3cc(Cl)ccc32)c1F [Example 166, 3-((5-chloro-3-(6-(3,3-difluoropyrrolidine-1-yl)pyridin-3-yl)-2-oxo-2,3-dihydro-1H-benzo[d]imidazol-1-yl)methyl)-2-fluorobenzoic acid]
The pIC50 of the first is higher: 7.00 to 8.00 for the first, 6.00 to 7.00 for the second. The first is the more potent here.

CN(C)c1ccc(-n2c(=O)n(C(C)(C)c3cccc(C(=O)O)c3)c3ccc(Cl)cc32)cc1 [Example 153, 3-(2-(5-chloro-3-(4-(dimethylamino)phenyl)-2-oxo-2,3-dihydro-1H-benzo[d]imidazol-1-yl)propane-2-yl)benzoic acid] and CC(C)(c1cccc(C(=O)O)c1)n1c(=O)n(-c2ccc(N3CC(O)C3)cc2)c2cc(Cl)ccc21 [Example 154, 3-(2-(5-chloro-3-(4-(3-hydroxyazetidin-1-yl)phenyl)-2-oxo-2,3-dihydro-1H-benzo[d]imidazol-1-yl)propane-2-yl)benzoic acid] fall in the same range of pIC50: 7.00 to 8.00 for the first, 7.00 to 8.00 for the second.

O=C(O)c1cccc(C2(n3c(=O)n(-c4ccc(C5CCOCC5)cc4)c4cc(Cl)ccc43)CCC2)c1 [Example 155, 3-(1-(5-chloro-2-oxo-3-(4-(tetrahydro-2H-pyran-4-yl)phenyl)-2,3-dihydro-1H-benzo[d]imidazol-1-yl)cyclobutyl)benzoic acid] and CC(C)(c1cccc(C(=O)O)c1)n1c(=O)n(-c2ccc(C3CCOCC3)cc2)c2cc(Cl)ccc21 [Example 158, 3-(2-(5-chloro-2-oxo-3-(4-(tetrahydro-2H-pyran-4-yl)phenyl)-2,3-dihydro-1H-benzo[d]imidazol-1-yl)propan-2-yl)benzoic acid] fall in the same range of pIC50: 7.00 to 8.00 for the first, 7.00 to 8.00 for the second.

First: CN(C)c1ccc(-n2c(=O)n(C3(c4cccc(C(=O)O)c4)CCC3)c3ccc(Cl)cc32)cc1 [Example 156, 3-(1-(5-chloro-3-(4-(dimethylamino)phenyl)-2-oxo-2,3-dihydro-1H-benzo[d]imidazol-1-yl)cyclobutyl)benzoic acid]
Second: CN(C)C(=O)c1ccc(-n2c(=O)n(C3(c4cccc(C(=O)O)c4)CCC3)c3ccc(Cl)cc32)cc1 [Example 157, 3-(1-(5-chloro-3-(4-(dimethylcarbamoyl)phenyl)-2-oxo-2,3-dihydro-1H-benzo[d]imidazol-1-yl)cyclobutyl)benzoic acid]
The pIC50 of the first is lower: 7.00 to 8.00 for the first, > 8.00 for the second. The second is the more potent here.

O=C(O)c1cccc(C2(n3c(=O)n(-c4ccc(N5CC(O)C5)cc4)c4cc(Cl)ccc43)CC2)c1 [Example 159, 3-(1-(5-chloro-3-(4-(3-hydroxyazetidin-1-yl)phenyl)-2-oxo-2,3-dihydro-1H-benzo[d]imidazol-1-yl)cyclopropyl)benzoic acid] and O=C(O)c1cccc(C2(n3c(=O)n(-c4ccc(N5CCC(F)(F)CC5)cc4)c4cc(Cl)ccc43)CC2)c1 [Example 160, 3-(1-(5-chloro-3-(4-(4,4-difluoropiperidin-1-yl)phenyl)-2-oxo-2,3-dihydro-1H-benzo[d]imidazol-1-yl)cyclopropyl)benzoic acid] cannot be ordered by pIC50: > 8.00 for the first, > 8.00 for the second.

CN(C)c1ccc(-n2c(=O)n(Cc3cccc(C(=O)O)c3)c3ncc(Cl)cc32)cc1 [Example 161, 3-((6-chloro-1-(4-(dimethylamino)phenyl)-2-oxo-1,2-dihydro-3H-imidazo[4,5-b]pyridin-3-yl)methyl)benzoic acid] and CN(C)c1ccc(-n2c(=O)n(Cc3cccc(C(=O)O)c3)c3ccc(Cl)cc32)nc1 [Example 164, 3-((5-chloro-3-(5-(dimethylamino)pyridin-2-yl)-2-oxo-2,3-dihydro-1H-benzo[d]imidazol-1-yl)methyl)benzoic acid] fall in the same range of pIC50: 6.00 to 7.00 for the first, 6.00 to 7.00 for the second.

First: O=C(O)c1cccc(Cn2c(=O)n(-c3ccc(N4CCOCC4)cc3)c3cc(Cl)cnc32)c1 [Example 162, 3-((6-chloro-1-(4-morpholinophenyl)-2-oxo-1,2-dihydro-3H-imidazo[4,5-b]pyridin-3-yl)methyl)benzoic acid]
Second: O=C(O)c1cccc(Cn2c(=O)n(-c3ccc(C(=O)N4CCCC4)cc3)c3cc(Cl)cnc32)c1 [Example 169, 3-((6-chloro-2-oxo-1-(4-(pyrrolidine-1-carbonyl)phenyl)-1,2-dihydro-3H-imidazo[4,5-b]pyridin-3-yl)methyl)benzoic acid]
The pIC50 of the first is lower: 6.00 to 7.00 for the first, 7.00 to 8.00 for the second. The second is the more potent here.

First: O=C(O)c1cccc(Cn2c(=O)n(-c3ccc(C4CC4)cn3)c3cc(Cl)ccc32)c1 [Example 163, 3-((5-chloro-3-(5-cyclopropylpyridin-2-yl)-2-oxo-2,3-dihydro-1H-benzo[d]imidazol-1-yl)methyl)benzoic acid]
Second: O=C(O)c1cccc(C2(n3c(=O)n(-c4ccc(N5CCC(F)(F)C5)nc4)c4cc(Cl)ccc43)CC2)c1 [Example 165, 3-(1-(5-chloro-3-(6-(3,3-difluoropyrrolidin-1-yl)pyridin-3-yl)-2-oxo-2,3-dihydro-1H-benzo[d]imidazol-1-yl)cyclopropyl)benzoic acid]
The pIC50 of the first is lower: 6.00 to 7.00 for the first, > 8.00 for the second. The second is the more potent here.

First: Cc1ccc2c(n1)n(-c1ccc(N(C)C)cc1)c(=O)n2Cc1cccc(C(=O)O)c1 [Example 168, 3-((3-(4-(dimethylamino)phenyl)-5-methyl-2-oxo-2,3-dihydro-1H-imidazo[4,5-b]pyridin-1-yl)methyl)benzoic acid]
Second: O=C(O)c1cccc(C2(n3c(=O)n(-c4ccc(CC(=O)N5CCCC5)cc4)c4cc(Cl)ccc43)CC2)c1 [Example 170, 3-(1-(5-chloro-2-oxo-3-(4-(2-oxo-2-(pyrrolidin-1-yl)ethyl)phenyl)-2,3-dihydro-1H-benzo[d]imidazol-1-yl)cyclopropyl)benzoic acid]
The pIC50 of the first is lower: 6.00 to 7.00 for the first, > 8.00 for the second. The second is the more potent here.
